Measured values as given in patent US11566007B2, “Ras inhibitors” (Revolution Medicines, Inc., priority 2019, dated 2023).
Values joined by “and” are separate entries in the source; they are usually repeats but may differ in a detail not shown here. Equal entries are not always repeated.

Tests used:
NCI-H358 (K-Ras G12C) = experiment: CellTiter-Glo cell viability assay, NCI-H358; format: cell-based, human; conditions: Homo sapiens, NCI-H358, 120 h, NCI-H358, 5-day treatment; class symbols; read-out: Additional H358 Cell Viability assay data (K-Ras G12C, IC50)
Summary of the method: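 Steps: compound dispensed into wells holding cells; incubation to day 5; ~30 min room-temperature equilibration; luminescence read; sample signal divided by mean DMSO signal, times 100; four-parameter logistic curve fit.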

K-Ras G12C = K-Ras G12C (Homo sapiens (Human), UniProt P01116+P62937, G12C); experiment: Ras-Raf (BRAF RBD) disruption / FRET / MOA assay, KRAS G12C; format: biochemical; conditions: KRAS G12C; Ras-Raf disruption/FRET/MOA assay; read-out: IC50* KRAS G12C FRET data
Summary of the method: (§1)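 Compounds, top final concentration 30 μM in 10-point 3-fold series, incubated 3 hours at 25° C with nucleotide-loaded Ras, cyclophilin A and BRAF RBD.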

K-Ras G13C = K-Ras G13C (Homo sapiens (Human), UniProt P01116+P62937, G13C); experiment: Ras-Raf (BRAF RBD) disruption / FRET / MOA assay, KRAS G13C; format: biochemical; conditions: KRAS G13C; Ras-Raf disruption/FRET/MOA assay; read-out: IC50* KRAS G13C FRET data
Summary of the method: as §1

KRAS G12S = KRAS G12S (Homo sapiens (Human), UniProt P01116+P62937, G12S); experiment: Ras-Raf (BRAF RBD) disruption / FRET / MOA assay, KRAS G12S; format: biochemical; conditions: Ras-Raf disruption/FRET/MOA assay; class symbols; read-out: KRAS G12S FRET data IC50
Summary of the method: as §1

KRAS G12D = KRAS G12D (Homo sapiens (Human), UniProt P01116+P62937, G12D); experiment: Ras-Raf (BRAF RBD) disruption / FRET / MOA assay, KRAS G12D; format: biochemical; conditions: Ras-Raf disruption/FRET/MOA assay; class symbols; read-out: KRAS G12D FRET data IC50
Summary of the method: as §1

KRAS G12V = KRAS G12V (Homo sapiens (Human), UniProt P01116+P62937, G12V); experiment: Ras-Raf (BRAF RBD) disruption / FRET / MOA assay, KRAS G12V; format: biochemical; conditions: read-out: IC50* KRAS G12V FRET data
Summary of the method: as §1

KRAS WT = KRAS WT (Homo sapiens (Human), UniProt P01116+P62937); experiment: Ras-Raf (BRAF RBD) disruption / FRET / MOA assay, KRAS WT; format: biochemical; conditions: read-out: IC50* KRAS WT FRET data
Summary of the method: as §1

KRAS Q61H = KRAS Q61H (Homo sapiens (Human), UniProt P01116+P62937, Q61H); experiment: Ras-Raf (BRAF RBD) disruption / FRET / MOA assay, KRAS Q61H; format: biochemical; conditions: Ras-Raf disruption/FRET/MOA assay; class symbols; read-out: KRAS Q61H FRET data IC50
Summary of the method: (§2)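 TR-FRET disruption of nucleotide-loaded Ras binding to BRAF RBD via compound-driven ternary complex with cyclophilin A. Compound as 10-point 3-fold series from 30 μM final, 3 h at 25° C, then anti-His Eu-W1024 (10 nM) and anti-GST allophycocyanin (50 nM) for 1.5 h. IC50 from decreased FRET ratio versus DMSO.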

NRAS G12C = NRAS G12C (Homo sapiens (Human), UniProt P01111+P62937, G12C); experiment: Ras-Raf (BRAF RBD) disruption / FRET / MOA assay, NRAS G12C; format: biochemical; conditions: read-out: IC50* NRAS G12C FRET data
Summary of the method: as §1

NRAS Q61R = NRAS Q61R (Homo sapiens (Human), UniProt P01111+P62937, Q61R); experiment: Ras-Raf (BRAF RBD) disruption / FRET / MOA assay, NRAS Q61R; format: biochemical; conditions: NRAS Q61R; Ras-Raf disruption/FRET/MOA assay; read-out: IC50* NRAS Q61R FRET data
Summary of the method: as §2

NRAS Q61K = NRAS Q61K (Homo sapiens (Human), UniProt P01111+P62937, Q61K); experiment: Ras-Raf (BRAF RBD) disruption / FRET / MOA assay, NRAS Q61K; format: biochemical; conditions: NRAS Q61K; Ras-Raf disruption/FRET/MOA assay; read-out: IC50* NRAS Q61K FRET data
Summary of the method: as §2

NRAS WT = NRAS WT (Homo sapiens (Human), UniProt P01111+P62937); experiment: Ras-Raf (BRAF RBD) disruption / FRET / MOA assay, NRAS WT; format: biochemical; conditions: read-out: IC50* NRAS WT FRET data
Summary of the method: as §2

K-Ras G13C, sequence (P01116-2 other isoform, or with tags, fused parts or gaps G13C): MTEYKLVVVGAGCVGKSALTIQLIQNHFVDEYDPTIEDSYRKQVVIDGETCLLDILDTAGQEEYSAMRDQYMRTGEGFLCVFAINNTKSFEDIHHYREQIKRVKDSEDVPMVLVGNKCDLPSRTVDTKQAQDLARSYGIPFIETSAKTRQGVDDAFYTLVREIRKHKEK
K-Ras G13C, sequence (P62937 whole entry): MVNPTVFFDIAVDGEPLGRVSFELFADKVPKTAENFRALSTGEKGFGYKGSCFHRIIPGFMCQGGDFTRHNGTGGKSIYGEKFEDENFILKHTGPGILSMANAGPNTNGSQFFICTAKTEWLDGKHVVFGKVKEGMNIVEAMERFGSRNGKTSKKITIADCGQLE
NRAS G12C, sequence (P01111 whole entry G12C): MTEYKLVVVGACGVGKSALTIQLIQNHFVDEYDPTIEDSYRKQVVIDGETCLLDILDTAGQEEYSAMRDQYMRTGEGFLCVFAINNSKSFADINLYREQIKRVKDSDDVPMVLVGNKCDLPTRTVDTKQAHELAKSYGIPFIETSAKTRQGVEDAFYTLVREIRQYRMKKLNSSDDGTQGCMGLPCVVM
NRAS G12C, sequence (P62937 whole entry): as the sequence (P62937 whole entry) above
NRAS WT, sequence (P01111 whole entry): as the sequence (P01111 whole entry G12C) above, with C12G counted along it
NRAS WT, sequence (P62937 whole entry): as the sequence (P62937 whole entry) above
K-Ras G12C, sequence (P01116-2 other isoform, or with tags, fused parts or gaps G12C): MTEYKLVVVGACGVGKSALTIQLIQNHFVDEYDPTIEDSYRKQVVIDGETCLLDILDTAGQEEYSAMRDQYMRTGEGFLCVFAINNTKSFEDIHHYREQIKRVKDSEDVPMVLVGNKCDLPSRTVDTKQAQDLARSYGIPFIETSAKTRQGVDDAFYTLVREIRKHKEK
K-Ras G12C, sequence (P62937 whole entry): as the sequence (P62937 whole entry) above
KRAS G12D, sequence (P01116-2 other isoform, or with tags, fused parts or gaps G12D): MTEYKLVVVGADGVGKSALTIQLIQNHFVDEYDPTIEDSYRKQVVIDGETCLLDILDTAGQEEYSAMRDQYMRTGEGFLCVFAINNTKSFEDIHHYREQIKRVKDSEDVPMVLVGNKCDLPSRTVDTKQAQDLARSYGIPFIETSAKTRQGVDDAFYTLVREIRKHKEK
KRAS G12D, sequence (P62937 whole entry): as the sequence (P62937 whole entry) above
NRAS Q61R, sequence (P01111 whole entry Q61R): as the sequence (P01111 whole entry G12C) above, with C12G, Q61R counted along it
NRAS Q61R, sequence (P62937 whole entry): as the sequence (P62937 whole entry) above
NRAS Q61K, sequence (P01111 whole entry Q61K): as the sequence (P01111 whole entry G12C) above, with C12G, Q61K counted along it
NRAS Q61K, sequence (P62937 whole entry): as the sequence (P62937 whole entry) above
KRAS G12S, sequence (P01116-2 other isoform, or with tags, fused parts or gaps G12S): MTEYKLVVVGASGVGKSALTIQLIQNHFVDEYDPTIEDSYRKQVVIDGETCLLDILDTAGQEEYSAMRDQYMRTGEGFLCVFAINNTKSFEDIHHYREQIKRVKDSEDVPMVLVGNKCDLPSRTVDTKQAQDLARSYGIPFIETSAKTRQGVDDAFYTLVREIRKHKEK
KRAS G12S, sequence (P62937 whole entry): as the sequence (P62937 whole entry) above
KRAS Q61H, sequence (P01116-2 other isoform, or with tags, fused parts or gaps Q61H): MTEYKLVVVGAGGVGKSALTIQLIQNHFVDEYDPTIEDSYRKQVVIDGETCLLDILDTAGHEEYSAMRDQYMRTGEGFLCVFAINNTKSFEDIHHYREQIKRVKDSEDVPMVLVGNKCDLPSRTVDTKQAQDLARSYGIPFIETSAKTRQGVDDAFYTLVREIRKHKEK
KRAS Q61H, sequence (P62937 whole entry): as the sequence (P62937 whole entry) above
KRAS WT, sequence (P01116-2 other isoform, or with tags, fused parts or gaps): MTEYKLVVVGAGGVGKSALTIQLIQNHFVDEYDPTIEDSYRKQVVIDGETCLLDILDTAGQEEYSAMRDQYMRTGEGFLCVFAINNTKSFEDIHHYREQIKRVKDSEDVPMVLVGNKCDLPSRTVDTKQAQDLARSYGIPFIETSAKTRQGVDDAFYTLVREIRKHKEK
KRAS WT, sequence (P62937 whole entry): as the sequence (P62937 whole entry) above
KRAS G12V, sequence (P01116-2 other isoform, or with tags, fused parts or gaps G12V): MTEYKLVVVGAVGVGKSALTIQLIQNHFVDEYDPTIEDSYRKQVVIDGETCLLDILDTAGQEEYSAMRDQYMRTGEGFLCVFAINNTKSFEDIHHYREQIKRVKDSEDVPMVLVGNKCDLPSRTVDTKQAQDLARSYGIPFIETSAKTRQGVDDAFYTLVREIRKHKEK
KRAS G12V, sequence (P62937 whole entry): as the sequence (P62937 whole entry) above

| Compound | IC50 (NCI-H358 (K-Ras G12C)) [µM] | IC50 (K-Ras G12C) [µM] | IC50 (K-Ras G13C) | IC50 (KRAS G12S) [µM] | IC50 (KRAS G12D) [µM] | IC50 (KRAS G12V) | IC50 (KRAS WT) [µM] | IC50 (KRAS Q61H) [µM] | IC50 (NRAS G12C) [µM] | IC50 (NRAS Q61R) [µM] | IC50 (NRAS Q61K) [µM] | IC50 (NRAS WT) [µM] |
| --- | --- | --- | --- | --- | --- | --- | --- | --- | --- | --- | --- | --- |
| CO[C@@H](C)c1ncccc1-c1c2c3nc(ccc3n1CC(F)(F)F)-c1cccc(c1)C[C@H](NC(=O)[C@@H](COC1CN(C(=O)C#CC(C)(C)N(C)C)C1)C(C)C)C(=O)N1CCC[C@H](N1)C(=O)OCC(C)(C)C2 (atropisomer, axis not shown) [Example A724] | < 0.01 | 0.01 to 0.1 | > 10 µM | > 10 | > 10 | > 10 µM | > 10 | > 10 | 0.01 to 0.1 | > 10 | > 10 | > 10 |
| CCn1c(-c2cccnc2[C@H](C)OC)c2c3cc(ccc31)-c1cccc(c1)C[C@H](NC(=O)[C@H](C(C)C)N1CO[C@@]3(CCN(C(=O)C#CC(C)(C)N4CCC4)C3)C1=O)C(=O)N1CCC[C@H](N1)C(=O)OCC(C)(C)C2 (atropisomer, axis not shown) [Example A733] | < 0.01 | 0.01 to 0.1 | 0.1 to 1 µM | 1 to 10 | > 10 | 1 to 10 µM | > 10 | 1 to 10 | 0.01 to 0.1 | > 10 | > 10 | > 10 |
| C=CC(=O)N1CCN(C(=O)N(C)[C@H](C(=O)N[C@H]2Cc3nc(cs3)-c3ccc4c(c3)c(c(-c3cccnc3[C@H](C)OC)n4CC)CC(C)(C)COC(=O)[C@@H]3CCCN(N3)C2=O)C(C)C)[C@@H]2C[C@@H]21 (atropisomer, axis not shown) [Example A736] | < 0.01 | 0.01 to 0.1 | 0.01 to 0.1 µM | 0.01 to 0.1 | 0.1 to 1 | 0.1 to 1 µM | 0.01 to 0.1 | 0.01 to 0.1 | 0.01 to 0.1 | 0.01 to 0.1 | 0.01 to 0.1 | 0.01 to 0.1 |
| C=CC(=O)C1CC[C@H](C(=O)N(C)[C@H](C(=O)N[C@H]2Cc3cc(O)cc(c3)-c3ccc4c(c3)c(c(-c3cnn(C)c3[C@H](C)OC)n4CC)CC(C)(C)COC(=O)[C@@H]3CCCN(N3)C2=O)C(C)C)C1 (stereo partly drawn) [Example A166] | < 0.01 | 0.01 to 0.1 | 0.1 to 1 µM | 0.1 to 1 | 1 to 10 | 0.1 to 1 µM | 0.1 to 1 | 0.1 to 1 | 0.01 to 0.1 | 1 to 10 | 1 to 10 | 0.1 to 1 |
| C=CC(=O)N1CC[C@H](C(=O)N(C)[C@H](C(=O)N[C@H]2Cc3cc(O)cc(c3)-c3ccc4c(c3)c(c(-c3cncc5c3[C@@H](OC)CC5)n4CC)CC(C)(C)COC(=O)[C@@H]3CCCN(N3)C2=O)C(C)C)C1 [Example A275] | < 0.01 | 0.01 to 0.1 | 0.01 to 0.1 µM | 0.01 to 0.1 | 0.1 to 1 | 0.01 to 0.1 µM | 0.1 to 1 | 0.01 to 0.1 | 0.01 to 0.1 | 0.1 to 1 | 0.1 to 1 | 0.01 to 0.1 |
| C=CC(=O)N1CC[C@H](C(=O)N(C)[C@H](C(=O)N[C@H]2Cc3nc(ns3)-c3ccc4c(c3)c(c(-c3cncnc3)n4CC)CC(C)(C)COC(=O)[C@@H]3CCCN(N3)C2=O)C(C)C)C1 [Example A285] | > 1 | > 10 | > 10 µM | > 10 | > 10 | > 10 µM | > 10 | > 10 | > 10 | > 10 | > 10 | > 10 |
| C=CC(=O)N1CC[C@H](C(=O)N(C)[C@H](C(=O)N[C@H]2Cc3cc(O)cc(c3)-c3ccc4c(c3)c(c(-c3cnn5c3[C@@H](OC)CCC5)n4CC)CC(C)(C)COC(=O)[C@@H]3CCCN(N3)C2=O)C(C)C)C1 [Example A300] | < 0.01 | < 0.01 | 0.01 to 0.1 µM | 0.01 to 0.1 | 0.1 to 1 | 0.01 to 0.1 µM | 0.01 to 0.1 | 0.01 to 0.1 | < 0.01 | 0.1 to 1 | 0.1 to 1 | 0.01 to 0.1 |
| CCn1c(-c2cccnc2[C@H](C)OC)c2c3cc(ccc31)-c1cccc(c1)C[C@H](NC(=O)C(COC1CN(C(=O)C#CC(C)(C)N(C)C)C1)C(C)C)C(=O)N1CCC[C@H](N1)C(=O)OCC(C)(C)C2 (stereo partly drawn) [Example A316, (2R)-2-(((1-(4-(dimethylamino)-4-methylpent-2-ynoyl)azetidin-3-yl)oxy)methyl)-N-((6^3S,4S)-1^1-ethyl-1^2-(2-((S)-1-methoxyethyl)pyridin-3-yl)-10,10-dimethyl-5,7-dioxo-6^1,6^2,6^3,6^4,6^5,6^6-hexahydro-1^1H-8-oxa-1(5,3)-indola-6(1,3)-pyridazina-2(1,3)-benzenacycloundecaphane-4-yl)-3-methylbutanamide] | < 0.01 | < 0.01 | 1 µM to 10 µM (2×) and > 10 µM | > 10 | > 10 | 1 µM to 10 µM and > 10 µM (2×) | > 10 | > 10 | < 0.01 | > 10 | > 10 | > 10 |
| C=CC(=O)N1CCC(C(=O)N(C)[C@H](C(=O)N[C@H]2Cc3cc(CF)cc(c3)-c3ccc4c(c3)c(c(-c3cccnc3[C@H](C)OC)n4CC(F)(F)F)CC(C)(C)COC(=O)[C@@H]3CCCN(N3)C2=O)C(C)C)C1 (stereo partly drawn) [Example A659] | < 0.01 | 0.01 to 0.1 | 0.1 to 1 µM | 0.1 to 1 | 1 to 10 | 0.1 to 1 µM | 0.1 to 1 | 0.1 to 1 | 0.01 to 0.1 | 0.1 to 1 | 1 to 10 | 0.1 to 1 |
| CCn1c(-c2cccnc2[C@H](C)OC)c2c3cc(ccc31)N1CCO[C@@H](C[C@H](NC(=O)[C@H](C(C)C)N(C)C(=O)[C@@]3(F)CCC(C(=O)C#CC(C)(C)N4CCC4)C3)C(=O)N3CCC[C@H](N3)C(=O)OCC(C)(C)C2)C1 (stereo partly drawn) [Example A726] | < 0.01 | < 0.01 | 0.1 to 1 µM | 1 to 10 | > 10 | 1 to 10 µM | 1 to 10 | 1 to 10 | 0.01 to 0.1 | > 10 | > 10 | 1 to 10 |
